Assay results as given in EP0212310A2, “Use of probucol in the preparation of a medicament for the treatment of heart arrhythmia” (priority 1985, dated 1987).
Values joined by “and” are separate entries in the source; they are usually repeats but may differ in a detail not shown here. Equal values may be shown once.

Tests used:
[1] = system: Patienten mit Hyperlipoproteinämie; assay: 12-lead standard ECG: QT time and heart rate in verum and placebo phases of a controlled study; type: in vivo
Source text: Je ein 12-Ableitungs-Standard-EKG wurde registriert. • 1. In der Placebophase • 2. In der Verumphase nach 12 Wochen • 3. In der Verumphase nach 24 Wochen • 4. In der Placebophase 42 Tage nach Absetzen von Probucol
Für jede der Aufzeichnungen wurde jeweils die frequenzkorrigierte QT-Zeit ermittelt (Bazett-Formula).
Unter Verwendung des Wilcoxon-Tests für verbundene Stichproben wurde geprüft, ob ein signifikanter Unterschied der QT-Dauer zwischen den Placebophasen und den Verumphasen besteht.

[2] = system: Patienten mit Hyperlipoproteinämie; assay: 24-hour long-term ECG: arrhythmia frequency under placebo (control) and under verum; type: in vivo
Source text: Von allen 42 Patienten wurde mittels Oxfolg-Medilog II Registriergeräten ein 24-Stunden-Langzeit-EKG sowohl in der Verum- als auch in der Placebophase registriert.
Die Bänder wurden ohne Kenntnis der Therapie unter Verwendung eines Reynolds Pathfinder-Analysesytems ausgewertet, dessen Sensitivität zur Identifikation von QRS-Komplexion bei 99 %, zur Erkennung ventrikulärer Extrasystolen bei 96 % lag. Neben den normalen und extrasystolischen QRS-Komplexen wurden auch die folgenden Arrhythmieformen quantitativ erfaßt: supraventrikuläre Extrasystolen, supraventrikuläre Tachykardien, ventrikuläre Extrasystolen, R/T-Phänomene,gepaarte ventrikuläre Extrasystolen, mehrere hintereinander auftretende ventrikuläre Extrasystolen, Kammertachykardien, ventrikuläre Bigemini und Asystolien. Darüber hinaus wurden erfaßt Phasen intermittierenden Vorhofflimmerns, intermittierende Schenkelblockbilder und das Herzfrequenzverhalten.
Die stündliche Häufigkeit der verschiedenen Rhythmusstö-rungen wurden erfaßt und auf einem Computerausdruck dokumentiert. Die Analyse wurde korrigiert, indem der Vorgang jedes Mal unterbrochen wurde, wenn eine ventrikuläre Extrasystole erkannt wurde. Diese wurde dann jeweils 1 : 1 auf EKG-Papier ausgeschrieben und durch den Untersucher verifiziert. Im Falle der falsch positiven Erkennung eines Ereignisses wurde der Computerausdruck entsprechend korrigiert. Dadurch wurde die positive Korrektheit der Analyse auf 100 % gesteigert. In Tabelle 3 sind die korri gierten Ergebnisse wiedergegeben.
Bei der relativen Seltenheit komplexer tachykarder ventrikulärer Rhythmusstörungen im untersuchten Kollektiv wurde eine Bewertung des Therapieeffektes lediglich für die ventrikulären Extrasystolen vorgenommen. Hierbei ließ sich die Frage nach einem möglichen paradoxen arrhythmogenen Effekt naturgemäß für alle Patienten beantworten, die Frage nach einem antiarrhythmischen Effekt dagegen nur bei den Patienten, deren spontane Arrhythmiehäufigkeit in der Placebophase eine gewisse Häufigkeit überschritt. Hierfür wurde willkürlich eine Grenze von wenigstens einer Extrasystole/Stunde, entsprechend 24 in 24 Stunden, gefordert.
Als Hinweis auf einen möglichen paradoxen arrhythmogenen Effekt des Medikaments werteten wir eine Zunahme der Extrasystoliehäufigkeit gegenüber Placebo um wenigstens 150 %. Als Hinweis auf einen möglichen antiarrhythmischen Effekt werteten wir eine Abnahme der spontanen Extrasystoliehäufigkeit um wenigstens 60 %, als Hinweise auf einen wahrscheinlichen antiarrhythmischen Effekt eine Abnahme der Extrasystoliehäufigkeit um wenigstens 75 %.

[3] = system: Patienten mit Hyperlipoproteinämie; details: in vivo
Source text: Bei 42 Patienten mit Hyperlipoproteinämie wurde im Rahmen einer kontrollierten Studie die Wirkung von Probucol gegen Placebo geprüft.

[4] = number out of 17 patients with more than 1 VES/h under placebo

CC(C)(Sc1cc(C(C)(C)C)c(O)c(C(C)(C)C)c1)Sc1cc(C(C)(C)C)c(O)c(C(C)(C)C)c1 [Probucol]
Verlängerung der frequenzkontrollierten QT-Zeit ([1]; 1000 mg daily, versus placebo): ca. 5%
Verum-2 F Mittelw. ([1]; mean, N 41, phase Verum-2): 64,32
Verum-2 QT Mittelw. ([1]; mean, N 41, phase Verum-2): 0,40
Verum-4 F Mittelw. ([1]; mean, N 41, phase Verum-4): 66,49
Verum-4 QT Mittelw. ([1]; mean, N 41, phase Verum-4): 0,38
frequenzkorrigierte QT-Zeit unter Probucol im Vergleich zu den Placebophasen ([1]; therapy phase 1 or 2 versus placebo phase 1 or 2, p = 0.002, Wilcoxon test): signifikant verlängert
Patienten mit Abnahme der Extrasystolie um wenigstens 60 % ([2]; further patients out of the 8 with more than 15 VES/h spontaneous frequency): Drei
komplexe tachykarde ventrikuläre Rhythmusstörungen unter Therapie ([2]; in the 3 patients with paradoxical arrhythmogenic effect): Bei keinem der 3 Patienten
Patienten mit signifikanter Zunahme der spontanen Arrhythmiehäufigkeit unter Probucol (paradoxe arrhythmogene Wirkung) ([2]; in vivo): 3
ventrikulärer Bigeminus ([2]; in vivo): bei einem Patienten unter Verum, jedoch nicht unter Placebo
Abnahme der Extrasystoliefrequenz ([2]; individual values of the 8 patients with more than 15 VES/h spontaneous frequency): 60% and 66% and 69% and 89% and 90% and 94% and 95% and 100%
Patienten mit statistisch signifikanter Abnahme der Extrasystoliefrequenz um mehr als 75 % ([2]; number out of 8 patients with more than 15 VES/h spontaneous frequency): 5
Patienten mit Reduktion der Extrasystolen unter Therapie über 75 % [2, 4]: 7
Patienten mit Reduktion der Extrasystolen zwischen 60 und 75 % [2, 4]: 3
Patienten mit Reduktion der spontanen Extrasystoliefrequenz, die auf eine antiarrhythmische Wirkung hinweist ([2]; share of the 17 patients with more than 1 VES/h under placebo, reduction of at least 60 %): 59%
Nebenwirkungen [3]: gelegentlich Durchfall, Bauchschmerzen und Kopfschmerzen
